# Values quoted from earlier work in US20080031951A1, “Compositions and methods for the inhibition of phospholipase A2” (priority 2005, published 2008).
# Tests used:
# [1] = system: intestine injury following ischemia and reperfusion; conditions: rats, oral administration
# [2] = system: colitis; conditions: rats, dextran sulfate- and trinitrobenzene sulfonic acid-induced
# [3] = system: release of thromboxane A2 triggered by exogenously added hGIIA; conditions: guinea pig BAL fluids containing macrophages, eosinophils and epithelial cells
# [4] = system: toxoplasmosis; conditions: injection, murine toxoplasmosis model
# [5] = target: T1, hGIIA (Homo sapiens, UniProt P14555); parameters: host or cells: transgenic mice overexpressing hGIIA, blood; conditions: intravenous administration, transgenic mice overexpressing hGIIA
# T1 sequence (P14555 21-144): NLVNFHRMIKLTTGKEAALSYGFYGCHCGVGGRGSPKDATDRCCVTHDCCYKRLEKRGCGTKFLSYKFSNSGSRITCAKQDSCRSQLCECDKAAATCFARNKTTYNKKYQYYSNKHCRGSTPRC
# [6] = system: hyperalgesia; conditions: lumbar intrathecal administration, 3 rat models of hyperalgesia
# [7] = system: sPLA2 activity; conditions: guinea pig model of ARDS
# [8] = system: rheumatoid arthritis
# [9] = system: asthma
# [10] = target: T1, hGIIA; conditions: more potent than LY311727
# [11] = system: sepsis and organ failure; conditions: humans with sepsis and organ failure
# [12] = target: mGIIE (Mus musculus, UniProt Q9QUL3)
# Chain of mGIIE (Q9QUL3 20-142): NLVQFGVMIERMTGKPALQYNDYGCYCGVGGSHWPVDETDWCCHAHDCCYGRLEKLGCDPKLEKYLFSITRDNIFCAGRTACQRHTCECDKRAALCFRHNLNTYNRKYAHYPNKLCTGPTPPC
# [13] = target: mGIID (Mus musculus, UniProt Q9WVF6)
# Chain of mGIID (Q9WVF6 20-144): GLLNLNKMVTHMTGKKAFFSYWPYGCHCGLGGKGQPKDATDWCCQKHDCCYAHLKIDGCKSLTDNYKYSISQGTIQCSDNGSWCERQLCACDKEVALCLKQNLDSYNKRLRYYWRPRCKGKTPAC
# [14] = system: pleurisy; conditions: rat, carageenin-induced pleurisy
# [15] = target: mGX (Mus musculus, UniProt Q9QXX3)
# Chain of mGX (Q9QXX3 29-151): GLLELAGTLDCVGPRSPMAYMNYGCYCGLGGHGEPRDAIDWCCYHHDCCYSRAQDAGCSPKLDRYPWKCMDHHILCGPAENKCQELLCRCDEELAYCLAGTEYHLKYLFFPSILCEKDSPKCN
# [16] = target: mGIIA (Mus musculus, UniProt P31482)
# Chain of mGIIA (P31482 22-146): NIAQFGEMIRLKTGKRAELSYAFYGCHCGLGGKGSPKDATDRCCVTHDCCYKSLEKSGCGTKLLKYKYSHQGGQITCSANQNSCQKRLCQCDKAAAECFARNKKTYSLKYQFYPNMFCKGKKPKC
# [17] = system: ear edema; conditions: mice, tetracenoylphorbol-13-acetate induced
# [18] = target: mGV (Mus musculus, UniProt P97391)
# Chain of mGV (P97391 21-137): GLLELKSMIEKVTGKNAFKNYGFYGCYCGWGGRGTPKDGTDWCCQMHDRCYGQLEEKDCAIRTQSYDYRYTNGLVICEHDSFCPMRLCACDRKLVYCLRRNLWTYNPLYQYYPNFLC
# [19] = target: group X sPLA2 / M-type receptor; conditions: mouse cells expressing the M-type receptor; read-out: IC50, block of binding of group X sPLA2 to M-type receptor
# [20] = system: PGE2 production in rat gastric epithelial cells; conditions: induced by TGF-α and IL-1, rat gastric epithelial cells
# [21] = system: septic shock; conditions: LPS injection, wild-type mice
# [22] = target: T2, porcine pancreatic group IB sPLA2 / M-type receptor (Sus scrofa, UniProt P00592); conditions: mouse cells expressing the M-type receptor; read-out: IC50, block of binding of porcine pancreatic group IB sPLA2 to M-type receptor
# T2 construct: host or cells: mouse cells expressing the M-type receptor
# T2 sequence (P00592 23-146): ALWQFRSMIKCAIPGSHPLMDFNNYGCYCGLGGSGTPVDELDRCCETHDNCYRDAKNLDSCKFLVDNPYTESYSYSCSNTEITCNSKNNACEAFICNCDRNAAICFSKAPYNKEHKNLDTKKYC
smiles,measurement,setting,value
O=C(O)CC[C@@H](Cc1ccc(OCc2ccccc2)cc1)NC(=O)CCCCCCc1ccccc1 [5-(4-benzyloxyphenyl)-4s-(7-phenylheptanoylamino)-pentanoic acid],protection of intestine from ischemia and reperfusion injury,[1],preserved rats intestine from injury
same,protection from colitis,[2],protected rats
CCc1c(CC(N)=O)c2cc(OCCCP(=O)(O)O)ccc2n1Cc1ccccc1 [LY311727],inhibition of release of thromboxane A2,[3],able to inhibit
same,mortality,[4],earlier mortality
same,PLA2 catalytic activity in blood,[5],loss of PLA2 catalytic activity in blood
same,inflammation-related symptoms,[6],attenuated all the inflammation-related symptoms observed
same,inhibition of sPLA2 activity induced by lipopolysaccharides,[7],could also inhibit
CCc1c(C(=O)C(N)=O)c2c(OCC(=O)OC)cccc2n1Cc1ccccc1 [LY333013],"effect on rheumatoid arthritis pathology, intravenous",[8]; administered intravenously,positive impacts on the pathology
same,"effect on rheumatoid arthritis pathology, oral","[8]; orally distributed, patients with rheumatoid arthritis","significant reduction of the pathology during the first week of trial, but the benefits were lost thereafter"
same,protection from colitis,[2],protected rats
same,tolerability,[9]; in these patients,well tolerated
same,benefit on inhaled allergen challenge,[9]; subjects with asthma,failed to show any benefit
Cc1c(C(=O)C(N)=O)c2c(OCC(=O)O)cccc2n1Cc1ccccc1-c1ccccc1 [Me-indoxam],potency to inhibit hGIIA relative to LY311727,[10],about 20 fold
CCc1c(C(=O)C(N)=O)c2c(OCC(=O)[O-])cccc2n1Cc1ccccc1.[Na+] [S-5920/LY315920Na],clinical outcome versus placebo,[11],no significant differences
CCCCCCCCCCCC(=O)c1c(O)c(C(=O)CCCCCCCCCCC)c(O)c(C2CC(c3ccc(O)cc3)Oc3cc(O)ccc32)c1O (stereo not shown) [YM-26734],inhibition of mGIIE,[12],potent inhibitor
same,inhibition of mGIID,[13],potent inhibitor
same,accumulation of exudate fluid and leukocytes,[14],significantly decreased
same,inhibition of mGX,[15],potent inhibitor
same,inhibition of mGIIA,[16],potent inhibitor
same,ear edema,[17],reduced
same,inhibition of mGV,[18],potent inhibitor
CCc1c(C(=O)C(N)=O)c2c(OCC(=O)O)cccn2c1Cc1ccccc1-c1ccccc1 [indoxam],IC50,[19],900 nM
same,PGE2 production,[20],inhibited
same,septic shock,[21],attenuated
same,IC50,[22],130 nM
